Source: ChEMBL document CHEMBL1143115, “Synthesis and biological properties of beta-turned Abeta(31-35) constrained analogues” (Bioorg Med Chem Lett, 2008)
Where a SMILES comes first, the peptide text is derived from it. [ ]: non-standard residue; d: D form. αMeP = C[C@@]1(C(=O)O)CCCN1; Aze = O=C(O)[C@@H]1CCN1; Aib = CC(C)(N)C(=O)O

Columns and labels:
[1] = Binding affinity to immobilized amyloid beta 25-35 by Surface plasmon resonance
[2] = Neurotoxicity in Wistar rat neuronal cells assessed as induction of mortality at 10 uM; type: toxicity, cell-based
[3] = Neurotoxicity in Wistar rat neuronal cells assessed as induction of mortality at 100 uM; type: toxicity, cell-based
[4] = Protective effect against beta amyloid oligomers induced toxicity in Wistar rat neuronal cells at 100 uM; type: functional

| Kd [1] [mM] | Compound | other results |
| --- | --- | --- |
| 0.013 | Nc1c(/N=N/c2ccc(-c3ccc(/N=N/c4cc(S(=O)(=O)O)c5ccccc5c4N)cc3)cc2)cc(S(=O)(=O)O)c2ccccc12 [CONGO RED] |  |
|  | CC[C@H](C)[C@H](N)C(=O)N[C@H](C(=O)NCC(=O)N[C@@H](CC(C)C)C(=O)N[C@@H](CCSC)C(=O)O)[C@@H](C)CC (H-IIGLM-OH) | Activity [2]: 21% |
|  | CC[C@H](C)[C@H](N)C(=O)N[C@H](C(=O)NCC(=O)N[C@@H](CC(C)C)C(=O)N[C@@H](CCSC)C(N)=O)[C@@H](C)CC (H-IIGLM-NH2) | Activity [2]: 10%; Activity [3]: 10% |
| 2.56 | CC[C@H](C)[C@H](N)C(=O)N[C@H](C(=O)NC(C)(C)C(=O)N[C@@H](CC(C)C)C(=O)N[C@@H](CCSC)C(N)=O)[C@@H](C)CC (H-II[Aib]LM-NH2) | Activity [4]: 24% |
| 4.6 | CC[C@H](C)[C@H](N)C(=O)N[C@H](C(=O)N1CC[C@H]1C(=O)N[C@@H](CC(C)C)C(=O)N[C@@H](CCSC)C(N)=O)[C@@H](C)CC (H-II[Aze]LM-NH2) |  |
| 1.53 | CC[C@H](C)[C@H](N)C(=O)N[C@H](C(=O)N1CCC[C@@]1(C)C(=O)N[C@@H](CC(C)C)C(=O)N[C@@H](CCSC)C(N)=O)[C@@H](C)CC (H-II[αMeP]LM-NH2) |  |
| 4.49 | CC[C@H](C)[C@H](N)C(=O)N[C@H](C(=O)N1CCC[C@H]1C(=O)N[C@@H](CC(C)C)C(=O)N[C@@H](CCSC)C(N)=O)[C@@H](C)CC (H-IIPLM-NH2) |  |
